A word on the IC50: it is the concentration needed to halve the response being measured. As a reminder, the Km is the concentration of substrate that gives half-maximal velocity. By kcat is commonly meant the maximal rate divided by the concentration of active sites.

One assay deals with BcII (Bacillus cereus, UniProt P04190). The experiment in a line: FC5 fluorogenic metallo-β-lactamase inhibition assay, BcII. The class given is biochemical. To be noted: FC5 substrate. The source says:
(§1) To investigate the extent to which cyclic boronates inhibit class C β-lactamases as well as the important class A ESBL and class D carbapenemase targets, we used a fluorogenic assay ([22]) to screen the cyclic boronates, which we have found to inhibit other β-lactamases ([21]), against them. The β-lactamases used for screening included TEM-1 and CTX-M-15 (class A), the metallo-β-lactamase (MBL) from Bacillus cereus (BcII), Verona integron-encoded metallo-β-lactamase 1 (VIM-1) (class B), AmpC from P. aeruginosa (class C), and OXA-23 and OXA-48 (class D), collectively representing all classes of β-lactamase.
(§2) We also screened the cyclic boronates against the model MBL, BcII, and VIM-1 using the FC5-based fluorogenic assay ([22]).
(§3) Inhibition assays were carried out using FC5 as a fluorogenic reporter substrate ([22]). Enzyme concentrations and buffers were the same as those employed in steady-state kinetic studies (see Table S2 in the supplemental material). […] The concentration of FC5 employed was 10 μM for TEM-1 and 5 μM for all other enzymes. […] Data at 0 min of incubation were obtained by addition of enzyme to a premixed solution of inhibitor and substrate. Residual enzyme activity was determined for a range of inhibitor concentrations. Nonlinear regression fitting of IC50 curves was carried out using a three-parameter dose-response curve in GraphPad Prism. Errors in IC50 are expressed as [σ(log IC50)/log IC50)] × IC50.
(§4) 45 Steady-state kinetics studies used a Pherastar FS microplate reader with UV-STAR® 96-well,
(§5) 47 black, µclear® plates (Greiner Bio-One) for FC5 (1). […]
(§6) 51 1 µM ZnSO4, 0.01% Triton X-100 for MBL assays. Reaction progress was monitored at 298 K
(§7) 53 intensity (λex = 380 nm, λem = 480 nm) for FC5 (1). Suitable enzyme concentrations for
(§8) 54 kinetic analysis were determined by monitoring changes in absorbance/fluorescence for
(§9) 55 enzyme concentrations between 20 nM and 20 pM. […]

The target in another assay is T1, VIM-1 (Pseudomonas aeruginosa, UniProt A0A0F7KYQ8).
T1 construct: His tag (3C-cleavable) (C, cleaved yes); made in house
The experiment in a line: FC5 fluorogenic metallo-β-lactamase inhibition assay, VIM-1. To be noted: pH 7.5, FC5 substrate, read-out: IC50, μM (mean ± SD) for VIM-1, pH 7.5. It is filed as biochemical.
Source text: as §1, §2, §3, §4, §5, §6, §7, §8, §9

Assay [1] has as its target T2, CTX-M-15 (Escherichia coli, UniProt Q9EXV5).
T2 construct: hexahistidine (pOPINF, 3C-cleavable) (N, cleaved yes); made in house; host or cells: E. coli BL21(DE3)
The class given is biochemical, E. coli. To be noted: CTX-M-15-catalysed hydrolysis of the substrate. On the procedure:
as §4
(§10) 47 black, µclear® plates (Greiner Bio-One) for FC5 (1). Buffers employed were 100 mM
(§11) 48 phosphate buffer pH 7.5, 0.01% (v/v) Triton X-100 for TEM-1, CTX-M-15 and AmpC, 100 mM
(§12) 49 phosphate buffer pH 7.5, 50 mM sodium bicarbonate, 0.01% Triton X-100 for OXA-23 and
as §6, §7, §8
(§13) 55 enzyme concentrations between 20 nM and 20 pM.
(§14) Kinetic constants were determined using the initial rate of hydrolysis with the
(§15) 57 reaction initiated through the addition of enzyme to pre-prepared substrate concentrations.
(§16) 58 Substrate concentrations ranged between 400 µM and 0.4 µM. The Michaelis-Menten
(§17) 59 equation was fitted to data by non-linear regression using GraphPad Prism software to
(§18) 60 calculate the Michaelis-Menten constant and the limiting rate (2).

In the next assay the target is T3, AmpC (Pseudomonas aeruginosa, UniProt P24735).
T3 construct: hexahistidine (pOPINF, 3C-cleavable) (N, cleaved yes); made in house; host or cells: E. coli BL21(DE3)
The class given is biochemical. To be noted: AmpC-catalysed hydrolysis of the substrate. The method, then:
as §4, §10, §11, §12, §6, §7, §8, §13, §14, §15, §16, §17, §18

Assay [2] has as its target T4, OXA-23 (Acinetobacter baumannii, UniProt Q9L4P2).
T4 construct: hexahistidine (pOPINF, 3C-cleavable) (N, cleaved yes); made in house; host or cells: E. coli BL21(DE3)
The class given is biochemical. To be noted: OXA-23-catalysed hydrolysis of the substrate. On the procedure: as §4, §10, §11, §12, §6, §7, §8, §13, §14, §15, §16, §17, §18

Assay [3] addresses T5, OXA-48 (Klebsiella pneumoniae, UniProt Q6XEC0).
T5 construct: hexahistidine (pOPINF, 3C-cleavable) (N, cleaved yes); made in house; host or cells: E. coli BL21(DE3)
The class given is biochemical. To be noted: OXA-48-catalysed hydrolysis of the substrate. The method, then: as §4, §10, §11, §12, §6, §7, §8, §13, §14, §15, §16, §17, §18

The target in assay [4] is T2, CTX-M-15. The experiment in a line: FC5 fluorogenic β-lactamase inhibition assay, CTX-M-15. The class given is biochemical. To be noted: FC5 substrate.
Source text: as §1, §3, §4, §10, §11, §12, §6, §7, §8, §13, §14, §15, §16, §17, §18

The next assay deals with T6, AmpC from P. aeruginosa (Pseudomonas aeruginosa, UniProt P24735).
T6 construct: hexahistidine (pOPINF, 3C-cleavable) (N, cleaved yes); made in house; host or cells: E. coli BL21(DE3)
The assay is described as follows: FC5 fluorogenic β-lactamase inhibition assay, AmpC. It is filed as biochemical. To be noted: IC50, nM (mean ± SD) for AmpC, FC5 substrate.
Source text: as §1, §3, §4, §10, §11, §12, §6, §7, §8, §13, §14, §15, §16, §17, §18

Assay [5] deals with T4, OXA-23. The assay is described as follows: FC5 fluorogenic β-lactamase inhibition assay, OXA-23. The class given is biochemical.
Source text: as §1, §3, §4, §10, §11, §12, §6, §7, §8, §13, §14, §15, §16, §17, §18

Assay [6] addresses T5, OXA-48. The experiment in a line: FC5 fluorogenic β-lactamase inhibition assay, OXA-48. It is filed as biochemical.
Source text: as §1, §3, §4, §10, §11, §12, §6, §7, §8, §13, §14, §15, §16, §17, §18

Like-named read-outs stand apart in the source and are kept apart here.

Chain of BcII (P04190 31-257): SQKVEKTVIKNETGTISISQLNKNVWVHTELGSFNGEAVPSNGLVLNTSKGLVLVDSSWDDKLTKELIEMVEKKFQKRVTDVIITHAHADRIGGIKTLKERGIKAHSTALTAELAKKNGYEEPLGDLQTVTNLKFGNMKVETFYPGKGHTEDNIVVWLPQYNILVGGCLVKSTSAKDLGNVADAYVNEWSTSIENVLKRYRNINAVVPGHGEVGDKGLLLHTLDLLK
T4 sequence (Q9L4P2 18-273): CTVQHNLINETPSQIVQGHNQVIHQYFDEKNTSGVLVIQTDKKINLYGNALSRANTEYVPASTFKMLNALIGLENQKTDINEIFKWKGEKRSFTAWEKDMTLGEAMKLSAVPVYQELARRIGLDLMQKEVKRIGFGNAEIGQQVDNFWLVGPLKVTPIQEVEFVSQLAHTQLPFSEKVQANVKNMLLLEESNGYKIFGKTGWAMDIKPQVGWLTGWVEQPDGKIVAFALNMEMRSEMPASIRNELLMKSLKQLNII
T2 sequence (Q9EXV5 entry or part of it): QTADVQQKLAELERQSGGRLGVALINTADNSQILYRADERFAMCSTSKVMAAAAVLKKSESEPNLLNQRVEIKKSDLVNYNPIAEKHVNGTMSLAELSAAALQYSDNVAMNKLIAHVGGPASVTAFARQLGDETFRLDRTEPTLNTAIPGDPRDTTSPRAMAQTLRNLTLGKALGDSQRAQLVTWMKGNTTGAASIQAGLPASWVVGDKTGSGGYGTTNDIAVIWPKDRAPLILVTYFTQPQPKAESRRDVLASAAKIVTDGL
T6 sequence (P24735 27-397): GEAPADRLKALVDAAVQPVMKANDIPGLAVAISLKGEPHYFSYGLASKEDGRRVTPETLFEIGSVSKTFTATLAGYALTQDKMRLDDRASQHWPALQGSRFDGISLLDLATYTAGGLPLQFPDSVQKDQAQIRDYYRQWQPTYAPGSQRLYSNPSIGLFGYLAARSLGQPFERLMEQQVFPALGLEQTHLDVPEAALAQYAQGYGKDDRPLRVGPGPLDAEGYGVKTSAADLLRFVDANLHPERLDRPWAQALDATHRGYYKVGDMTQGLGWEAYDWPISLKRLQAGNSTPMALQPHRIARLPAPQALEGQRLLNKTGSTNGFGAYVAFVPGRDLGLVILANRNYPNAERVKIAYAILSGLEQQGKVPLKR
T5 sequence (Q6XEC0 23-265 limits assumed): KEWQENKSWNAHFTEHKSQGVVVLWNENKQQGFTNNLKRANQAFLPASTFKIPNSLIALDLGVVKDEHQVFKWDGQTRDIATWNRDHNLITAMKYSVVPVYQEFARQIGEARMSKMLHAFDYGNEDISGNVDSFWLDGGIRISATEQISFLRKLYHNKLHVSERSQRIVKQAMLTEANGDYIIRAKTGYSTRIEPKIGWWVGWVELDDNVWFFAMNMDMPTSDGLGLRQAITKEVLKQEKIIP
T3 sequence (P24735 27-397): as the sequence (P24735 27-397) above

Turning to `O=C(O)C(S)c1ccccc1` (racemic) [(±)-Thiomandelic acid, thiomandelic acid], the IC50 at BcII (pH 6.5, preincubation 0 min, read-out: IC50, μM (mean ± SD) for BcII, pH 6.5) was determined as 0.27 ± 0.06 µM; at BcII (pH 6.5, preincubation 10 min, read-out: IC50, μM (mean ± SD) for BcII, pH 6.5), 0.9 ± 0.1 µM; at BcII (pH 6.5, preincubation 30 min, read-out: IC50, μM (mean ± SD) for BcII, pH 6.5), 0.5 ± 0.1 µM; at BcII (pH 6.5, preincubation 60 min, read-out: IC50, μM (mean ± SD) for BcII, pH 6.5), 2 ± 1 µM; at BcII (pH 6.5, preincubation 360 min, read-out: IC50, μM (mean ± SD) for BcII, pH 6.5) it was 2 ± 1 µM; on BcII (pH 7.5, preincubation 0 min, read-out: IC50, μM (mean ± SD) for BcII, pH 7.5), 0.3 ± 0.03 µM. The IC50 was 0.39 ± 0.05 µM at BcII (pH 7.5, preincubation 10 min, read-out: IC50, μM (mean ± SD) for BcII, pH 7.5); 0.33 ± 0.04 µM on BcII (pH 7.5, preincubation 30 min, read-out: IC50, μM (mean ± SD) for BcII, pH 7.5); 0.5 ± 0.2 µM at BcII (pH 7.5, preincubation 60 min, read-out: IC50, μM (mean ± SD) for BcII, pH 7.5); 2 ± 1 µM on BcII (pH 7.5, preincubation 360 min, read-out: IC50, μM (mean ± SD) for BcII, pH 7.5); 0.38 ± 0.03 µM on VIM-1 (preincubation 0 min); 0.45 ± 0.02 µM at VIM-1 (preincubation 10 min). Further, the IC50 came to 0.8 ± 0.9 µM at VIM-1 (preincubation 30 min), 1.4 ± 0.9 µM at VIM-1 (preincubation 60 min) and 2 ± 1 µM at VIM-1 (preincubation 360 min).

Turning to `O=C(Cc1ccccc1)N[C@@H]1C(=O)N2C(C(=O)O)=C(COc3ccc4ccc(=O)oc4c3)CS(=O)(=O)[C@H]12` [FC5], the Michaelis-Menten constant (Km) on CTX-M-15 [1] worked out at 170 ± 20 µM; at AmpC, 600 ± 220 µM; at OXA-23 [2] it was 500 ± 130 µM; on OXA-48 [3] it was 420 ± 50 µM. Also, the kcat at CTX-M-15 [1] amounted to 1100 ± 100 s⁻¹; at AmpC it was 500 ± 160 s⁻¹; on OXA-23 [2], 38 ± 7 s⁻¹; on OXA-48 [3] it was 28 ± 2 s⁻¹.

With `CC1(C)[C@H](C(=O)O)N2C(=O)C[C@H]2S1(=O)=O` [Sulbactam, sulbactam], the half-inhibitory concentration (IC50) at CTX-M-15 [4] (IC50, nM (mean ± SD) for CTX-M-15, preincubation 0 min) was 44 ± 1 nM; at CTX-M-15 [4] (IC50, nM (mean ± SD) for CTX-M-15, preincubation 10 min), 29 ± 1 nM; against CTX-M-15 [4] (IC50, nM (mean ± SD) for CTX-M-15, preincubation 30 min), 28 ± 7 nM; at CTX-M-15 [4] (IC50, nM (mean ± SD) for CTX-M-15, preincubation 60 min), 32 ± 0.3 nM; at CTX-M-15 [4] (IC50, nM (mean ± SD) for CTX-M-15, preincubation 360 min) it was 16.6 ± 0.1 nM; on AmpC from P. aeruginosa (preincubation 0 min) it was > 200000 nM. Moreover, the half-maximal inhibitory concentration (IC50) on AmpC from P. aeruginosa (preincubation 10 min) is 42000 nM; against AmpC from P. aeruginosa (preincubation 30 min), 8600 nM; on AmpC from P. aeruginosa (preincubation 60 min), 4400 nM; against AmpC from P. aeruginosa (preincubation 360 min), 1000 nM; on OXA-23 [5], > 200000 nM; at OXA-23 [5] (read-out: IC50, nM (mean ± SD) for OXA-23, preincubation 10 min, FC5 substrate), > 200000 nM. For the same compound, the IC50 at OXA-23 [5] (read-out: IC50, nM (mean ± SD) for OXA-23, preincubation 30 min, FC5 substrate) was > 200000 nM; at OXA-23 [5] (read-out: IC50, nM (mean ± SD) for OXA-23, preincubation 60 min, FC5 substrate) it was > 200000 nM; at OXA-23 [5] (read-out: IC50, nM (mean ± SD) for OXA-23, preincubation 360 min, FC5 substrate), > 200000 nM; against OXA-48 [6], > 200000 nM; at OXA-48 [6] (read-out: IC50, nM (mean ± SD) for OXA-48, preincubation 10 min, FC5 substrate) it was > 200000 nM; on OXA-48 [6] (read-out: IC50, nM (mean ± SD) for OXA-48, preincubation 30 min, FC5 substrate), > 200000 nM. Further, the half-maximal inhibitory concentration (IC50) at OXA-48 [6] (read-out: IC50, nM (mean ± SD) for OXA-48, preincubation 60 min, FC5 substrate) was > 200000 nM; at OXA-48 [6] (read-out: IC50, nM (mean ± SD) for OXA-48, preincubation 360 min, FC5 substrate), > 200000 nM.

The record behind these values is paper PMC5365654, “Cyclic Boronates Inhibit All Classes of β-Lactamases” (Antimicrobial Agents and Chemotherapy, 2017).
